Assay results reported in US9932349B2 (priority 2000, dated 2018).
“And” between values parts separate entries of the source, which are not always exact repeats. Equal values may be shown once. Read-outs that look alike come from different tables or passages of the source.

How the values were obtained:
[1] = biological target: T1, human κ opioid receptor (Homo sapiens, UniProt P41145); assay: biochemical; assay type: binding
T1 construct: expressed in transfected cells; host or cells: Chinese hamster ovary (CHO) cells
T1 sequence (P41145 whole entry): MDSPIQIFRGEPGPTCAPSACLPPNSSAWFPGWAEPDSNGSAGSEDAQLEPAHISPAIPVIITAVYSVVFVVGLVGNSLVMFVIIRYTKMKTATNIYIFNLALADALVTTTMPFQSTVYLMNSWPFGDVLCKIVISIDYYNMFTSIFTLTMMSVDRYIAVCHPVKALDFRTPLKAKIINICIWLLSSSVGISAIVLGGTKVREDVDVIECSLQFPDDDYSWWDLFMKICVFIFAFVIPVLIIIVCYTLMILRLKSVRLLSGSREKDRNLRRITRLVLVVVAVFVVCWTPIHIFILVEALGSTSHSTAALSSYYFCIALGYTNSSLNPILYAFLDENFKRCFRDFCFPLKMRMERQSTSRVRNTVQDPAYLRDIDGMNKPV

[2] = biological target: T2, δ opioid receptor (Cavia porcellus, UniProt A0A286XTF2); assay: biochemical; assay type: binding, guinea pig
T2 construct: determined in guinea pig brain cells; from tissue; host or cells: guinea pig brain
T2 sequence (A0A286XTF2 1-366): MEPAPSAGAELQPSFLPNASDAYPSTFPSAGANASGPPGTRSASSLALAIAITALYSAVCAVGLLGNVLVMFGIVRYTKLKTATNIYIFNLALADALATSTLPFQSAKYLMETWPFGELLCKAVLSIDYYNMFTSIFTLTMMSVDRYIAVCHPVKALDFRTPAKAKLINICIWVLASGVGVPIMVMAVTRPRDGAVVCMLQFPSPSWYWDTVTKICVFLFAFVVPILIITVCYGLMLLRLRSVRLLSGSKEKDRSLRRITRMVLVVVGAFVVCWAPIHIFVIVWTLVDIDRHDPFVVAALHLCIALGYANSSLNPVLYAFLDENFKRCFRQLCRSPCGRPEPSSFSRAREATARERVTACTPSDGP

[3] = biological target: T3, human μ opioid receptor (Homo sapiens, UniProt P35372); assay: biochemical; assay type: binding
T3 construct: expressed in transfected cells; host or cells: Chinese hamster ovary (CHO) cells
T3 sequence (P35372 whole entry): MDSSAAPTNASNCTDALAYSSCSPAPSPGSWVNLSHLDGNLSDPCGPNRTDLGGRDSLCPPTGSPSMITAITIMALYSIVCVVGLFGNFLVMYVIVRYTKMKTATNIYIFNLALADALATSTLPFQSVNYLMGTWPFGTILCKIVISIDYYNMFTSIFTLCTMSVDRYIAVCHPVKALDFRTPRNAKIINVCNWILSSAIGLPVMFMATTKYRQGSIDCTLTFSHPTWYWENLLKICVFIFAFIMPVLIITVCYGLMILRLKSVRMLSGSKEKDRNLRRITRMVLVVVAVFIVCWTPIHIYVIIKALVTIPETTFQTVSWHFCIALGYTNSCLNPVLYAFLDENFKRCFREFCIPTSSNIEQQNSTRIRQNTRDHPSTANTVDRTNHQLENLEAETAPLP

[4] = biological target: T4, κ opioid receptor (Cavia porcellus, UniProt P41144); assay: biochemical; assay type: binding, guinea pig
T4 construct: determined in guinea pig brain cells; from tissue; host or cells: guinea pig brain
T4 sequence (P41144 whole entry): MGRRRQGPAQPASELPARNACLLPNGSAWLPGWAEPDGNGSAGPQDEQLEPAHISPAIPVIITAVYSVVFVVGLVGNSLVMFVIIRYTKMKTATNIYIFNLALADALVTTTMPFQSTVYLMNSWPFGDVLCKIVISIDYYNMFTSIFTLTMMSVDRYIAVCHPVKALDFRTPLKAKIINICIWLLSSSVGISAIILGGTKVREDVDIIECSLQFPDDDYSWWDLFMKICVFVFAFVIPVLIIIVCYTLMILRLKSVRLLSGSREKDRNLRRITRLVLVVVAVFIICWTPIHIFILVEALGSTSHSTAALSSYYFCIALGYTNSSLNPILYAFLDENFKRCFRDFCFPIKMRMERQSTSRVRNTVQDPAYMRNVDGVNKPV

[5] = biological target: T5, human δ opioid receptor (Homo sapiens, UniProt P41143); assay: binding to cloned human receptor in CHO cell membranes, [3H]Naltrindole
T5 construct: expressed in transfected cells; host or cells: Chinese hamster ovary (CHO) cells
T5 sequence (P41143 whole entry): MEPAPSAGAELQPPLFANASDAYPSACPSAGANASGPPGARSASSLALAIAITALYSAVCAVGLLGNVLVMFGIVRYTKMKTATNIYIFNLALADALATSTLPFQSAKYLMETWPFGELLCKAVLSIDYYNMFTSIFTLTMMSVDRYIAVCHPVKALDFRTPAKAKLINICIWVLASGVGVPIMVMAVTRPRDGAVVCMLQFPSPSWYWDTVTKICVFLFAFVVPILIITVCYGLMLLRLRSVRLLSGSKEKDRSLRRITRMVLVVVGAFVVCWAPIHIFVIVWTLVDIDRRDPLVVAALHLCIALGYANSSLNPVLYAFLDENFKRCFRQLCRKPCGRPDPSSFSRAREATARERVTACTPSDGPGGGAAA
Method: The affinities of the compounds of the invention were determined in guinea pig brain cells by the method described in Wentland et al. Biorgan. Med. Chem. Lett. 9. […] CHO cell membranes, expressing the human μ, δ, or κ opioid receptor, were incubated with 12 different concentrations of the compounds in the presence of receptor-specific radioligands at 25° C., in a final volume of 1 ml of 50 mM Tris-HCl, pH 7.5. Nonspecific binding was determined using 1 μM naloxone. Data are the mean value ±S.E.M. from three experiments, performed in triplicate.

[6] = test system: mice; assay: mouse acetic acid writhing test (antinociceptive activity); assay type: in vivo; conditions: for duration of action (antinociception, mouse writhing test): 1.0 mg/kg i.p.; for ED50 in the mouse acetic acid writhing test: administered i.c.v.
[7] = biological target: μ opioid receptor (Cavia porcellus, UniProt A0ACM8Q262); assay type: binding, guinea pig
Sequence of μ opioid receptor (A0ACM8Q262 1-400): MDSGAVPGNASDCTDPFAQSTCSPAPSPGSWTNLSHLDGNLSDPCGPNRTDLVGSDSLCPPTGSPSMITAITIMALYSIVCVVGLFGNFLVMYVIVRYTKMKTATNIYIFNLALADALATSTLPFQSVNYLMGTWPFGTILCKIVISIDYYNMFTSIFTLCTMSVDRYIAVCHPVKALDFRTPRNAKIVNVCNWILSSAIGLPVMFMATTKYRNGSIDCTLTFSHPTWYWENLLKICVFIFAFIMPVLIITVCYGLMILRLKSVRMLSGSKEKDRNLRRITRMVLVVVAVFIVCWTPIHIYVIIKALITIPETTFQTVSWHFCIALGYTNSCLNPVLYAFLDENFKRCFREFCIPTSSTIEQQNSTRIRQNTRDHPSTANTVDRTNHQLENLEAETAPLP

`CC1C2C(=O)c3ccc(O)cc3[C@@]1(C)CCN2CC1CC1` (mixture of isomers) [(±)-ketocyclazocine, Ketocyclazocine, reference compound] was tested, and the Ki [1] was 1 ± 0.019 nM, the Ki ([2]; [3H] Naltrindole (δ)) was 20 ± 2.7 nM and the Ki [3] was 1.7 ± 0.21 nM. The Ki ([4]; [3H] U69,593 (κ)) was 1 ± 0.24 nM and the Ki [5] was 130 ± 14 nM.

`C[C@H]1C2Cc3ccc(C(N)=O)cc3[C@@]1(C)CCN2CC1CC1` (racemic) [Example 4, (±)-3-(Cyclopropylmethyl)-1,2,3,4,5,6-hexahydro-cis-6,11-dimethyl-2,6-methano-3-benzazocin-8-carboxamide] was tested, and the “duration of action (antinociception, mouse writhing test)” value [6] was 15 h, the “ED50 in the mouse acetic acid writhing test” value [6] was 0.21 nmol and the Ki ([2]; Ki [3H] Naltrindole (δ)) was 8.3 nM and 4.9 nM.

`CC1C2Cc3ccc(NC(N)=O)cc3C1(C)CCN2CC1CC1` (racemic) [Example 36] showed a Ki ([7]; read-out: Ki [3H] DAMGO (μ)) of 20 ± 0.66 nM, a Ki ([2]; read-out: Ki [3H] Naltrindole (δ)) of 90 ± 12 nM and a Ki ([4]; read-out: Ki [3H] U69,593 (κ)) of 15 ± 1.4 nM.

`CC1C2Cc3ccc(NC(N)=S)cc3C1(C)CCN2CC1CC1` (racemic) [Example 37] showed a Ki ([1]; read-out: Ki [3H] U69,593 (κ)) of 4 ± 0.54 nM, a Ki ([3]; read-out: Ki [3H] DAMGO (μ)) of 10 ± 1.7 nM and a Ki ([5]; read-out: Ki [3H] Naltrindole (δ), Table 1, footnote a: chinese hamster ovary rather than guinea pig brain) of 440 ± 72 nM.

`NC(=O)c1ccc2c3c1OC1C(=O)CCC4(O)C(C2)N(CC2CC2)CCC314` (stereo not shown) [Example 32] gave a Ki ([7]; read-out: [3H] DAMGO (μ)) of 1.9 ± 0.21 nM, a Ki ([2]; read-out: [3H] Naltrindole (δ)) of 110 ± 8.1 nM and a Ki ([4]; read-out: [3H] U69,593 (κ)) of 22 ± 0.85 nM.

`CCOC(=O)c1ccc2c3c1OC1C(=O)CCC4(O)C(C2)N(CC2CC2)CCC314` (stereo not shown) [Example 33] was tested, and the Ki ([7]; read-out: [3H] DAMGO (μ)) was 24 ± 1.7 nM, the Ki ([2]; read-out: [3H] Naltrindole (δ)) was 970 ± 155 nM and the Ki ([4]; read-out: [3H] U69,593 (κ)) was 16 ± 0.7 nM.

For `CC1C2Cc3ccc(CC#N)cc3C1(C)CCN2CC1CC1` (stereo not shown) [Example 38], the Ki [1] was 2.9 ± 0.36 nM, the Ki [3] was 3.3 ± 1.5 nM and the Ki [5] was 2000 ± 685 nM.

With `CC1C2Cc3ccc(C=NO)cc3C1(C)CCN2CC1CC1` (stereo not shown) [Example 39] the Ki [1] was 0.73 ± 0.03 nM, the Ki [3] was 18 ± 1.8 nM and the Ki [5] was 140 ± 15 nM.

Work on `N#Cc1ccc2c(c1O)[C@]13CCN(CC4CCC4)[C@H](C2)[C@]1(O)CCC(=O)C3` [Example 43] yielded a Ki [1] of 2.6 ± 0.21 nM, a Ki [3] of 0.35 ± 0.092 nM and a Ki [5] of 82 ± 24 nM.

In the case of `Oc1ccc2c(c1)C13CCCCC1(O)C(C2)N(CC1CCC1)CC3` (stereo not shown) [butorphanol, Butorphanol, reference compound], the Ki [1] is reported as 0.22 ± 0.023 nM and the Ki [5] is reported as 12 ± 3.8 nM.

For “Cyclazocine [(±)-Cyclazocine, reference compound]”, the Ki ([7]; read-out: [3H] DAMGO (μ)) was 0.32 ± 0.02 nM, the “duration of action (antinociception, mouse writhing test)” value [6] was “ca. 2 hr” and the “ED50 in the mouse acetic acid writhing test” value [6] was 2.9 nmol.
